Patent US20260109693A1, “BUTENOLIDE COMPOUNDS CONTAINING THIAZOLIDINONE STRUCTURE AS WELL AS PREPARATION METHOD THEREFOR AND USE THEREOF” (priority 2023, published 2026)

Test system: Fusarium graminearum strains resistant to phenamacril
Assay type: cell-based

## 5-(4-methyl-2-oxo-1-oxaspiro[4,5]-dec-3-en-3-ethylidene)-2-thio-4-thiazolidinone [Compound 3-1]
1 mg/L and 0.5 mg/L, resistant strains T10, T2-5, T32, T13, T12 vs standard strain 2021
  inhibition rate on resistant strains compared with standard strain: the same as that of the standard wild-type Fusarium graminearum strain
50 mg/L, resistant strains T2-5, T10, T32, T18, T48, T79
  growth inhibition of all resistant strains: completely inhibit the growth of all resistant strains
